These results are taken from patent publication US20040049072A1, “RXR modulators with improved pharmacologic profile” (priority 1999, published 2004).

“Also recorded” adds a separate entry of the source. Read-outs that look alike come from different tables or passages of the source.

In series [1] the test system is db/db mouse. As to the kind of experiment: db/db mouse study (rodent model of Type II diabetes). To be noted: for insulin sensitizing activity with thyroid axis suppression and triglyceride elevations: rodent models of Type II Diabetes; for inhibition in vivo at 30 mg/kg: Mus musculus, po, 168 h, read-out: db/db mouse Glu. (D7); for db/db mouse Trigs. (D3): plasma triglycerides as % of control values, day 3, 30 mg/kg/day.
Experimental: Mice (obtained from Jackson Laboratory), ZDF rats (obtained from Genetic Models Inc.) and fa/fa rats (obtained from either Charles River, or Harlan) were maintained on 12-hour light/dark cycle. […] Compounds were administered at the specified doses by oral gavage on the morning of each day of any experiment. Blood samples were obtained 3 hours after dosing from fed animals under anesthesia and collected into heparinized capillary tubes from the tail vein.

The target of series [2] is T1, RXRα (Homo sapiens, UniProt P19793).
T1 sequence (P19793 1-462): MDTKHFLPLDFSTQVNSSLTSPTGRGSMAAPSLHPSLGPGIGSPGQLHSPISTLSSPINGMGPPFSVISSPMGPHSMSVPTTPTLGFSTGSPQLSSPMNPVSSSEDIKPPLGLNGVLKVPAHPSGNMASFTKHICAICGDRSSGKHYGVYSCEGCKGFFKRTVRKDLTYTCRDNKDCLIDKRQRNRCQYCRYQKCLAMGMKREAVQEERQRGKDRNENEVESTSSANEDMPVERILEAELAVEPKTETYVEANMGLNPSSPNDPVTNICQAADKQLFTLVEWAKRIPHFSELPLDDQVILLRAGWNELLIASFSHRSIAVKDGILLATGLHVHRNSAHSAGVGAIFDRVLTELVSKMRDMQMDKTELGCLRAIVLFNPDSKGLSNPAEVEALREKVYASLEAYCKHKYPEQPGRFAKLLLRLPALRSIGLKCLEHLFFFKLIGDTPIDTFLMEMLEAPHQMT
As to the kind of experiment: RXRα binding (competition with tritiated LGD1069). As to the method:
Non-specific binding was defined as that binding remaining in the presence of 500 nM of the appropriate unlabelled compound. At the end of the incubation period, bound ligand was separated from free. The amount of bound tritiated retinoid was determined by liquid scintillation counting of an aliquot (700 μL) of the supernatant fluid or the hydroxylapatite pellet.
After correcting for non-specific binding, IC50 values were determined. […] The IC50 value was determined graphically from a log-logit plot of the data. The Ki values were determined by application of the Cheng-Prussof equation to the IC50 values, the labeled ligand concentration and the Kd of the labeled ligand.

Series [3] deals with T2, RXRα:PPARγ heterodimer (Homo sapiens, UniProt P19793).
T2 construct: expressed in transfected cells; host or cells: CV-1 cells
T2 sequence (P19793 1-462): T1 sequence (P19793 1-462)
T2 sequence (P37231 1-505 partner): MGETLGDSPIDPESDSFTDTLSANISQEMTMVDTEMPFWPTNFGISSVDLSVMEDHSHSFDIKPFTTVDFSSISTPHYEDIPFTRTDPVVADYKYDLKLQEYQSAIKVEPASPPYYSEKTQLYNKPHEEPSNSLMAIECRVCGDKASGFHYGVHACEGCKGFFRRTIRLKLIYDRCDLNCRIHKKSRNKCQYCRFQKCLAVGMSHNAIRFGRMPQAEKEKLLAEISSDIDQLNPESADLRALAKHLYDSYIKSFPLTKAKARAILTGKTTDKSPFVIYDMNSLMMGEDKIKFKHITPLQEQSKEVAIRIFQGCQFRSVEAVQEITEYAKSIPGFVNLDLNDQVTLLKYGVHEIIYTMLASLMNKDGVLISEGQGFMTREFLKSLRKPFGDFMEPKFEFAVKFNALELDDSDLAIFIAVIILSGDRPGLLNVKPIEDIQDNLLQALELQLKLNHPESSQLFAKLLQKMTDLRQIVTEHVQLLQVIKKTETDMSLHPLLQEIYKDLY
The series is described as follows: RXR:PPARγ heterodimer co-transfection assay in CV-1 cells. The format is cell-based. As to the method:
(§1) For determination of agonist activity in the context of the RXR:RAR heterodimer or the RXR:PPARγ heterodimer, media containing compounds of the present invention in concentrations ranging from 10^−10 to 10^−5 M were added to the cells.
(§2) Compounds of the present invention were also tested for the ability to synergize with a PPARγ agonist in the context of an RXR heterodimer. […] Efficacy of the compounds of the present invention in the agonist and synergy assays was calculated as the maximum response obtained over the range of the dose response curve relative to the maximum response obtained by the reference agonist. Antagonist efficacy was determined as a function (%) of maximal inhibition.
To examine the effects of the compounds of the present invention on the transcriptional properties of the RXR:PPARγ, a heterodimer cotransfection assay as described above was employed.

The target in series [4] is T3, RXRα homodimer (RXR:RXR) (Homo sapiens, UniProt P19793).
T3 sequence (P19793 1-462): T1 sequence (P19793 1-462)
The series is described as follows: RXR homodimer co-transfection assay in CV-1 cells. The format is cell-based. To be noted: CV-1, read-out: RXR:RAR CV-1 (%) Ag. An excerpt:
In the co-transfection assay, cloned cDNA for one or more IRs (e.g., human RARα, RXRα, or PPARγ), alone or in combination (i.e. for heterodimer assays) under the control of a constitutive promoter (e.g., the SV 40, RSV or CMV promoter) is introduced by transfection (a procedure to introduce exogenous genes into cells) into a background cell substantially devoid of endogenous IRs. These introduced gene(s) direct the recipient cells to make the IR protein(s) of interest. A further gene is also introduced (co-transfected) into the same cells in conjunction with the IR gene(s). This further gene, comprising the cDNA for a reporter protein, such as firefly luciferase (LUC), controlled by an appropriate hormone responsive promoter containing a hormone response element (HRE). This reporter plasmid functions as a reporter for the transcriptional-modulating activity of the target IR(s). Thus, the reporter acts as a surrogate for the products (mRNA then protein) normally expressed by a gene under control of the target receptor(s) and their native hormone(s).
Exposing the transfected cells to an agonist ligand compound increases reporter activity in the transfected cells. This activity can be conveniently measured, e.g., by increasing luciferase production and enzymatic activity, which reflects compound-dependent, IR-mediated increases in reporter transcription. […] Increasing concentrations of an antagonist will decrease the reporter signal (e.g., luciferase production). The co-transfection assay is therefore useful to detect both agonists and antagonists of specific IRs. Furthermore, it determines not only whether a compound interacts with a particular IR, but whether this interaction mimics (agonizes) or blocks (antagonizes) the effects of native or synthetic regulatory molecules on target gene expression, as well as the specificity and strength of this interaction.
The receptor expression plasmid was cotransfected along with a reporter plasmid at 50 ng/well, the internal control plasmid pRS-β-Gal at 50 ng/well and filler DNA, pGEM, at 90 ng/well.
Six hours after transfection, media was removed and the cells were washed with phosphate-buffered saline (PBS). Media containing compounds of the present invention in concentrations ranging from 10^−10 to 10^−5 M were added to the cells. […] Retinoids were dissolved in dimethylsulfoxide for use in the transcriptional activation assays. Two to three replicates were used for each sample. Transfections and subsequent procedures were performed on a Biomek 1000 automated workstation.
After 40 hours, the cells were washed with PBS, lysed with a detergent-based buffer and assayed for LUC and β-Gal activities using a luminometer or spectrophotometer, respectively. For each replicate, the normalized response (NR) was calculated as: […]
The mean and standard error of the mean (SEM) of the NR were calculated. Data were plotted as the response of the compound compared to the reference compounds over the range of the dose-response curve. […] Antagonist activity was determined by testing the amount of LUC expression in the presence of the RXR agonists described above at the EC50 concentration for such known compounds. […] In addition, the efficacy of antagonists was determined as a function (%) of maximal inhibition.

Series [5] addresses T4, RXRα:RAR heterodimer (Homo sapiens, UniProt P19793).
T4 construct: expressed in transfected cells; host or cells: CV-1 cells
T4 sequence (P19793 1-462): T1 sequence (P19793 1-462)
As to the kind of experiment: RXR:RAR heterodimer co-transfection assay in CV-1 cells. Format: cell-based. As for the experimental part:
as §1, §2
However, when RAR is occupied, typical RXR agonists activate the heterodimer. […] To examine the effects of the compounds of the present invention on the transcriptional properties of the RXR:RAR heterodimer, a heterodimer cotransfection assay as described above was employed.

The mark [6] stands for this setting: Table 2, from IC50 by Cheng-Prussof equation, tritiated LGD1069, read-out: Bind RXRα Ki.
Where [7] appears, read: CV-1, read-out: RXR:RAR CV-1 (%) Ag.
[8] abbreviates: Table 2, maximal response in presence of 100 nM BRL49653 relative to BRL49653 alone.

In the case of `CCCCOc1c(C2=C(/C=C/C(C)=C/C(=O)O)CCC2)cc(C(C)C)cc1C(C)C` [Compound L9], the “insulin sensitizing activity with thyroid axis suppression and triglyceride elevations” value (“insulin sensitizing activity” below) in series [1] is “maintain the desirable insulin sensitizing activity and minimize both the suppression of the thyroid axis and triglyceride elevations”.

Usually Ki stands for a measure of affinity in units of concentration, obtained from inhibition or displacement. Take `CCOc1c(\C(C)=C/C=C/C(C)=C/C(=O)O)cc(C(F)(F)C(F)(F)F)cc1C(C)C` [Compound L15]: the Ki in series [2] (setting [6]) amounted to 6 nM. In addition, in series [3], the “PPARγ CV-1 (%) Synergy” value stood at 99%. Further, in series [1], the inhibition in vivo at 30 mg/kg turned out to be 80%; the “db/db mouse Trigs. (D3)” value turned out to be 156%; the “insulin sensitizing activity” value was “maintain the desirable insulin sensitizing activity and minimize both the suppression of the thyroid axis and triglyceride elevations”. In addition, the Emax in series [4] came to 44%. Moreover, in series [5] (setting [7]), the Emax is 1%.

On to `C/C(=C/C=C/C(C)=C/C(=O)O)c1cc(-c2ccccc2F)cc(C(C)C)c1OCC(F)F` [Compound L19], for which the Ki in series [2] (setting [6]) worked out at 1 nM. Besides, the “PPARγ CV-1 (%) Synergy” value in series [3] is listed as 47%. Further, in series [1], the inhibition in vivo at 30 mg/kg amounted to 68%; the “db/db mouse Trigs. (D3)” value stood at 187%; the “insulin sensitizing activity” value is “maintain the desirable insulin sensitizing activity and minimize both the suppression of the thyroid axis and triglyceride elevations”. For the same molecule, the Emax in series [4] worked out at 3%. For the same molecule, in series [5] (setting [7]), the Emax is 2%.

With `CN(CCOc1ccc(CC2SC(=O)NC2=O)cc1)c1ccccn1` (stereo not shown) [BRL 49653, reference compound], the “RXRα:PPARγ Heterodimer Cotransfection Assay Agonist Efficacy (%)” value in series [3] (maximal response relative to response of BRL 49653) is recorded as 100%.

`C/C(=C/C=C/C(C)=C/C(=O)O)c1cc(C(C)(C)C)cc(C(C)(C)C)c1OCC(F)F` [Compound L13]: in series [1], the inhibition in vivo at 30 mg/kg turned out to be 54%; the “db/db mouse Trigs. (D3)” value was 109%; the “insulin sensitizing activity” value is “maintain the desirable insulin sensitizing activity and minimize both the suppression of the thyroid axis and triglyceride elevations”.

Regarding `CCCCCOc1c(\C(C)=C/C=C/C(C)=C/C(=O)O)cc(C(C)C)cc1C(C)C` [Compound L7], the “insulin sensitizing activity” value in series [1] is “maintain the desirable insulin sensitizing activity and eliminate or reduce both the suppression of the thyroid axis and triglyceride elevations; also recorded: maintain the desirable insulin sensitizing activity and minimize both the suppression of the thyroid axis and triglyceride elevations”.

`C/C(=C/C=C/C(C)=C/C(=O)O)c1cc(C(C)(C)C)cc(C(C)(C)C)c1OCC(F)(F)F` [Compound L23]: the Ki in series [2] (setting [6]) stood at 27 nM. Besides, the inhibition in vivo at 30 mg/kg in series [1] was 53%. The Emax in series [4] turned out to be 1%; in series [5] (setting [7]), 7%.

For `CCC(C)(C)c1cc(\C(C)=C/C=C/C(C)=C/C(=O)O)c(OCC(F)F)c(C(C)(C)CC)c1` [Compound L18], the Ki in series [2] (setting [6]) came out at 29 nM. Moreover, the “PPARγ CV-1 (%) Synergy” value in series [3] (setting [8]) is 69%. In series [1], the inhibition in vivo at 30 mg/kg was found to be 45%; the “db/db mouse Trigs. (D3)” value was determined as 134%; the “insulin sensitizing activity” value was “maintain the desirable insulin sensitizing activity and minimize both the suppression of the thyroid axis and triglyceride elevations”. Also, in series [4], the Emax amounted to 2%. In addition, the Emax in series [5] (setting [7]) amounted to 1%.

For the molecule `CCCOc1c(C2=C(/C=C/C(C)=C/C(=O)O)CCC2)cc(C(C)C)cc1C(C)C` [Compound L8], the “insulin sensitizing activity” value in series [1] is “maintain the desirable insulin sensitizing activity and minimize both the suppression of the thyroid axis and triglyceride elevations”.

With `C/C(=C\c1ccc(C(=O)O)cc1)c1ccc2c(c1)C(C)(C)CCC2(C)C` [TTNPB, (E)-4-[2-(5,6,7,8-tetrahydro-5,5,8,8-tetramethyl-2-naphthalenyl)-1-propenyl]benzoic acid, reference compound], the Emax in series [5] (CV-1, read-out: RXRα:RAR Heterodimer Cotransfection Assay Agonist Efficacy (%)) amounted to 115%. For the same molecule, the “agonist activity on the RXR:RAR heterodimer” value in series [5] (compound alone) is “strongly transactivate”.

For `CN(C)C(=N)N=C(N)N` [metformin, reference compound], in series [1] (7 week old db/db mice, 300 mg/kg daily oral gavage), the “efficacy over 3 subsequent weeks” value is “decreases”. In series [1] (7 week old db/db mice, 300 mg/kg daily oral gavage, maximum effect after first week), the plasma glucose entry is reported as “lowers plasma glucose”.

`CCc1cc(-c2ccsc2/C=C/C(C)=C/C(=O)O)c(OCCCF)c(C2CCCC2)c1` [Compound L17] registered a Ki in series [2] of 8 nM. In series [3] (setting [8]), the “PPARγ CV-1 (%) Synergy” value worked out at 88%. Besides, in series [1], the inhibition in vivo at 30 mg/kg worked out at 29%; the “db/db mouse Trigs. (D3)” value was 75%; the “insulin sensitizing activity” value is “maintain the desirable insulin sensitizing activity and minimize both the suppression of the thyroid axis and triglyceride elevations”. Besides, the Emax in series [4] was 3%. For the same molecule, in series [5] (setting [7]), the Emax worked out at 4%.
